Source: article PMC9031804, “The Peptide-Drug Conjugate TH1902: A New Sortilin Receptor-Mediated Cancer Therapeutic against Ovarian and Endometrial Cancers” (Cancers, 2022)

How the values were obtained:
[1] = test system: A2780 ovarian cancer xenografts; experiment: A2780 ovarian cancer xenograft tumor growth; format: in vivo, human tumor in female athymic nude mice; conditions: for Tumor progression, Size Increase (x-Fold Day-0): vehicle group endpoint, n = 5 mice/group
Text: (§1) Animals were obtained from Charles River Laboratories, Inc. and allowed to acclimate for 5 days before experiments. Female CD-1 nude mice (Crl:CD1-Foxn1^nu, 4–6 weeks old; ES-2) or athymic nude mice (Crl:NU(NCr)-Foxn1^nu, 4–6 weeks old; SKOV3, A2780, AN3-CA) were used for the xenograft tumor models. Mice were maintained in a pathogen-free environment and handled in accordance with the Guidelines of the Canadian Council on Animal Care. Animal protocols were approved by the Institutional Animal Care and Use Committee of Université du Québec à Montréal (0620-C1R1-897-0621).
(§2) Tumor xenografts were established by subcutaneous inoculation of 5 × 10^6 cells (ES-2) or 7 × 10^6 cells (SKOV3) in 150 µL of HBSS; other xenografts were established by subcutaneous inoculation of 5 × 10^6 cells (A2780) or 2 × 10^6 cells (AN3-CA) in 150 µL of HBSS/Matrigel (50:50). All cells were injected into the right flanks of immunodeficient mice under light isoflurane anesthesia. The injection schedules and doses of injected substances are detailed in the figures. Briefly, when palpable ES-2, SKOV3 or AN3-CA tumors reached a volume of ~100 mm^3, mice were treated weekly with either vehicle, docetaxel (3.75 or 15 mg/kg) or TH1902 (8.75 or 35 mg/kg) at equivalent docetaxel amounts via intravenous (IV) tail vein injection. Note that three cycles of 15 mg/kg docetaxel is the maximum tolerated dose in mice and that 35 mg/kg TH1902 contains the same quantity of docetaxel (bis-linked to the peptide). In A2780 xenografts, when palpable tumors reached a volume of ~250 mm^3, mice were treated with either vehicle, paclitaxel (10 mg/kg, IV), carboplatin (40 mg/kg, intraperitoneal (IP)), docetaxel (10 mg/kg, IV) or TH1902 (23 mg/kg, IV) bi-weekly as single agents or once on Day-0 as combinations with carboplatin. For combination treatments, both taxanes and TH1902 were injected 1 h following carboplatin administrations at the doses previously described. Injectable solutions were prepared as follows: TH1902 was solubilized at 10 mg/mL in 10% Tween-80 in D5W (pH 4.3, w/v) then further diluted with D5W; docetaxel was solubilized at 25 mg/mL in ethanol and Tween-80 (50/50, v/v) then further diluted with D5W; paclitaxel was solubilized at 25 mg/mL in ethanol and Cremophor EL (50/50, v/v) then further diluted in saline; carboplatin was solubilized at 50 mg/mL in water then further diluted in a solution of 30% PEG400 and 5% Tween-80 in D5W (w/v); vehicle composition and preparation mimicked highest dose of TH1902 preparation. Tumor growth was monitored by two-dimensional measurements taken with an electronic caliper and tumor volume was calculated according to the following formula: tumor volume (mm^3) = π/6 × length × width^2. Data are expressed as mean ± SEM and were analyzed using GraphPad Prism software.
Figure 8 Effects of TH1902 and carboplatin combinations on A2780 ovarian cancer xenografts. A2780 cells were subcutaneously implanted in the flanks of athymic nude mice. Tumor volume measurements following bi-weekly administrations of (A) vehicle, docetaxel, TH1902, paclitaxel or carboplatin as single agents, or (B) administered once in combination using the same dosage as described in the methods section. Colored dots below indicate drug treatments for all groups. Data are represented as mean ± SEM (n = 5 mice/group).

SKOV3 cells = experiment: Cell proliferation, MTT assay, SKOV3; format: cell-based; conditions: Homo sapiens, SK-OV-3, 96 h, mean ± SD, n = 3 to 5, read-out: IC50, anti-proliferative activity
Procedure: (§3) To assess the effects of docetaxel and TH1902 on ovarian and endometrial cancer cell proliferation, cells (ES-2: 3000 cells/well, SKOV3: 1000 cells/well, A2780: 7000 cells/well, AN3-CA: 7000 cells/well) were first seeded in 96-well plates (Perkin Elmer, Guelph, ON, Canada), then treated with various concentrations of drugs in complete cell culture medium. After 72 h of incubation for ES-2, A2780 and AN3-CA cells, or 96 h for SKOV3 cells, cell proliferation was measured using the 3-(4,5-dimethylthiazol-2-yl)-2,5-diphenyltetrazolium bromide (MTT) as described previously. Analyses were made in quadruplicate for each condition.

[2] = test system: AN3-CA endometrial cancer xenografts; experiment: AN3-CA endometrial cancer xenograft tumor growth; format: in vivo, human tumor in female athymic nude mice; conditions: for Tumor progression, Size Increase (x-Fold Day-0): vehicle group endpoint Day 14, n = 6 mice/group
Text: as §1, §2

[3] = Mice weights, ES-2 xenograft study; format: in vivo; conditions: ES-2 study
[4] = test system: ES-2 ovarian cancer xenografts; experiment: ES-2 ovarian cancer xenograft tumor growth; format: in vivo, human tumor in female CD-1 nude mice; conditions: for Tumor progression, Size Increase (x-Fold Day-0): vehicle group endpoint Day 18, n = 6 mice/group
Text: as §1
Tumor xenografts were established by subcutaneous inoculation of 5 × 10^6 cells (ES-2) or 7 × 10^6 cells (SKOV3) in 150 µL of HBSS; other xenografts were established by subcutaneous inoculation of 5 × 10^6 cells (A2780) or 2 × 10^6 cells (AN3-CA) in 150 µL of HBSS/Matrigel (50:50). All cells were injected into the right flanks of immunodeficient mice under light isoflurane anesthesia. The injection schedules and doses of injected substances are detailed in the figures. […] Note that three cycles of 15 mg/kg docetaxel is the maximum tolerated dose in mice and that 35 mg/kg TH1902 contains the same quantity of docetaxel (bis-linked to the peptide). […] Tumor growth was monitored by two-dimensional measurements taken with an electronic caliper and tumor volume was calculated according to the following formula: tumor volume (mm^3) = π/6 × length × width^2. Data are expressed as mean ± SEM and were analyzed using GraphPad Prism software.
Figure 6 Effects of docetaxel and TH1902 on ES-2 and SKOV3 ovarian cancer xenografts. […] Immunodeficient mice bearing subcutaneous ES-2 (A) or SKOV3 (B) tumors were intravenously injected weekly with either vehicle, docetaxel (at its MTD and quarter MTD doses; 15 and 3.75 mg/kg, respectively), or TH1902 (at a dosage which contains a quantity of bound docetaxel equal to the docetaxel doses; 35 and 8.75 mg/kg, respectively), as described in the methods section. […]

[5] = ref [38]; cited from earlier work
Text: Taxanes, mainly paclitaxel and docetaxel, are well-known microtubule stabilizers used in various cancer including ovarian and endometrial cancer first-line therapies in the last thirty years. […] Here, the new chemical entity TH1902 is distinct from the docetaxel molecule as it selectively exploits SORT1’s internalization properties to trigger cell apoptosis in ES-2 and ...

[6] = test system: SKOV3 ovarian cancer xenografts; experiment: SKOV3 ovarian cancer xenograft tumor growth; format: in vivo, human tumor in female athymic nude mice; conditions: for Tumor progression, Size Increase (x-Fold Day-0): vehicle endpoint Day 28, n = 6 mice/group
Text: as §1
as §2, with “For combination treatments, both taxanes and TH1902 were injected 1 h following carboplatin administrations at the doses previously described. Injectable solutions were prepared as follows: TH1902 was solubilized at 10 mg/mL in 10% Tween-80 in D5W (pH 4.3, w/v) then further diluted with D5W; docetaxel was solubilized at 25 mg/mL in ethanol and Tween-80 (50/50, v/v) then further diluted with D5W; paclitaxel was solubilized at 25 mg/mL in ethanol and Cremophor EL (50/50, v/v) then further diluted in saline; carboplatin was solubilized at 50 mg/mL in water then further diluted in a solution of 30% PEG400 and 5% Tween-80 in D5W (w/v); vehicle composition and preparation mimicked highest dose of TH1902 preparation.” left out
Figure 6 Effects of docetaxel and TH1902 on ES-2 and SKOV3 ovarian cancer xenografts. […] Immunodeficient mice bearing subcutaneous ES-2 (A) or SKOV3 (B) tumors were intravenously injected weekly with either vehicle, docetaxel (at its MTD and quarter MTD doses; 15 and 3.75 mg/kg, respectively), or TH1902 (at a dosage which contains a quantity of bound docetaxel equal to the docetaxel doses; 35 and 8.75 mg/kg, respectively), as described in the methods section. Mice in the ES-2 study were euthanized at vehicle group endpoint (Day 18), whereas indicated groups in SKOV3 study were monitored for a prolonged period up to Day 46 post start of treatments.

[7] = Mice weights, A2780 xenograft study; format: in vivo; conditions: docetaxel 10 mg/kg IV, three cycles
Procedure: (§4) Tumor xenografts were established by subcutaneous inoculation of 5 × 10^6 cells (ES-2) or 7 × 10^6 cells (SKOV3) in 150 µL of HBSS; other xenografts were established by subcutaneous inoculation of 5 × 10^6 cells (A2780) or 2 × 10^6 cells (AN3-CA) in 150 µL of HBSS/Matrigel (50:50). All cells were injected into the right flanks of immunodeficient mice under light isoflurane anesthesia. The injection schedules and doses of injected substances are detailed in the figures. Briefly, when palpable ES-2, SKOV3 or AN3-CA tumors reached a volume of ~100 mm^3, mice were treated weekly with either vehicle, docetaxel (3.75 or 15 mg/kg) or TH1902 (8.75 or 35 mg/kg) at equivalent docetaxel amounts via intravenous (IV) tail vein injection. Note that three cycles of 15 mg/kg docetaxel is the maximum tolerated dose in mice and that 35 mg/kg TH1902 contains the same quantity of docetaxel (bis-linked to the peptide). […] Tumor growth was monitored by two-dimensional measurements taken with an electronic caliper and tumor volume was calculated according to the following formula: tumor volume (mm^3) = π/6 × length × width^2. Data are expressed as mean ± SEM and were analyzed using GraphPad Prism software. […]

[8] = Mice weights, SKOV3 xenograft study; format: in vivo; conditions: docetaxel 15 mg/kg, three weekly cycles
Procedure: as §4

[9] = mice; three (weekly) cycles; ref [31]; cited from earlier work
[10] = Mice weights, AN3-CA xenograft study; format: in vivo; conditions: docetaxel high dose 15 mg/kg, reversed when dosage was halved
Procedure: as §4

A2780 cells = experiment: Cell proliferation, MTT assay, A2780; format: cell-based; conditions: Homo sapiens, 72 h, mean ± SD, n = 3 to 5, read-out: IC50, anti-proliferative activity
Procedure: as §3

ES-2 cells = experiment: Cell proliferation, MTT assay, ES-2; format: cell-based; conditions: Homo sapiens, 72 h, mean ± SD, n = 3 to 5, read-out: IC50, anti-proliferative activity
Procedure: as §3

[11] = single agent 40 mg/kg IP bi-weekly
[12] = single agent 10 mg/kg IV bi-weekly

Structure (SMILES): N.N.O=C([O-])C1(C(=O)[O-])CCC1.[Pt+2] [Carboplatin, carboplatin]
- Tumor growth inhibition [1, 11]: 38%
- Tumor progression, Size Increase (x-Fold Day-0) [1, 11]: 4.21 x-Fold Day-0

Structure (SMILES): CC(=O)O[C@@]12CO[C@@H]1C[C@H](O)[C@@]1(C)C(=O)[C@H](O)C3=C(C)[C@@H](OC(=O)[C@H](O)[C@@H](NC(=O)OC(C)(C)C)c4ccccc4)C[C@@](O)([C@@H](OC(=O)c4ccccc4)[C@H]21)C3(C)C [Docetaxel, docetaxel]
- IC50 (SKOV3 cells): 0.61 ± 0.1 nM
- Tumor progression, Size Increase (x-Fold Day-0) ([2]; docetaxel 3.75 mg/kg IV weekly): 12.07 x-Fold Day-0
- Tumor progression, Size Increase (x-Fold Day-0) ([2]; docetaxel 15 mg/kg IV weekly): 0.79 x-Fold Day-0
- Tumor response on prolonged monitoring ([2]; docetaxel high dose 15 mg/kg (halved for final two treatments), before end of treatments): unresponsive and regrew before the end of treatments
- Tumor regression ([2]; docetaxel high dose 15 mg/kg, vs vehicle endpoint): induced tumor regressions
- Tolerability / body weight ([3]; docetaxel high dose 15 mg/kg, three weekly cycles, vs initial weight): small weight loss
- Tolerability / body weight ([3]; docetaxel low dose 3.75 mg/kg weekly): well-tolerated with slight weight gain
- Tumor progression, Size Increase (x-Fold Day-0) ([4]; docetaxel 3.75 mg/kg IV weekly): 10.08 x-Fold Day-0
- Tumor progression, Size Increase (x-Fold Day-0) ([4]; docetaxel 15 mg/kg IV weekly): 8.31 x-Fold Day-0
- Effect on tumor growth ([4]; docetaxel, both 3.75 and 15 mg/kg IV weekly): produced little effect
- Water solubility [5]: very poor water solubility
- Tumor progression, Size Increase (x-Fold Day-0) ([6]; docetaxel 3.75 mg/kg IV weekly): 9.70 x-Fold Day-0
- Tumor progression, Size Increase (x-Fold Day-0) ([6]; docetaxel 15 mg/kg IV weekly): 2.25 x-Fold Day-0
- Tumor regrowth on prolonged monitoring ([6]; docetaxel high dose 15 mg/kg, prolonged monitoring): could not sustain this effect, which is marked by tumor regrowth
- Tumor growth inhibition ([6]; docetaxel high dose 15 mg/kg, vs vehicle endpoint Day 28): 84%
- Body weight loss, in words [7]: significant body weight loss
- Body weight loss [8]: > 10%
- Body weight loss, in words [8]: severe weight loss
- Maximum tolerated dose [9]: 15 mg/kg
- Body weight loss, in words [10]: Rapid weight loss
- IC50 (A2780 cells): 1.76 ± 0.38 nM
- IC50 (ES-2 cells): 2.24 ± 0.99 nM
- Tumor growth inhibition [1, 12]: 43%
- Tumor progression, Size Increase (x-Fold Day-0) [1, 12]: 4.13 x-Fold Day-0
